Values of other authors in patent publication US20150216993A1 (priority 2012, published 2015).

System: organophosphate poisoning
Conditions: in vivo

For O/N=C/c1cc[n+](COC[n+]2ccc(/C=N/O)cc2)cc1 [obidoxime, obidoxime chloride], the “window of time in which the therapeutic is effective” value is given as “about 10 minutes”.
